SMILES strings stand for the structures. “And” between values parts separate entries of the source, which are not always exact repeats. Equal values may be shown once.

The assay deals with CcapOBP83a-2 (Ceratitis capitata, UniProt W8W3U3). The assay is described as follows: Binding of fluorescent probe 1-NPN to CcapOBP83a-2 (fluorescence titration). The following applies: for Kd: dissociation constant (KD) of 1-NPN, protein 2 μM, 20 mM Tris–HCl pH 7.4; for saturation level of 1-NPN: protein concentration ≈2 μM. How it is done:
To measure the binding affinity of the fluorescent probe 1-NPN to CcapOBP83a-2, a 2 μM solution of protein in 20 mM Tris–HCl pH 7.4 was titrated with aliquots of 1 mM 1-NPN stock to a final concentration of 0.1–50 μM in methanol. The 1-NPN/protein mixture was excited at 337 nm and the emission was recorded between 380 and 450 nm on a Perkin Elmer LS 55 Fluorescence spectrometer (Cambridge–UK) at 25 °C in a right angle configuration with a 1 cm light path quartz cuvette. The excitation and emission slits were both 5 nm. Data were recorded and graphed using FL WinLab Software (Perkin–Elmer). The affinity of other ligands was measured in competitive binding assays, using 1-NPN as fluorescent reporter at 3 μM concentration and final concentrations of each competitor from 0.1 μM to 50 μM. To determine binding constants, the fluorescent intensity values at the maximum emission (after subtracting those measured without protein) were plotted against free ligand concentrations. […] IC50 values (the concentration of ligand halving the initial fluorescence level) were used to calculate each competitor dissociation constants (KD), by the equation: KD = IC50/1 + [1 − NPN]/K1-NPN, where [1 − NPN] is the free concentration of 1 − NPN and K1-NPN is the dissociation constant of the 1-NPN/protein complex. Analyses were performed by nonlinear regression curve fitting using GraphPad Prism 5 (GraphPad Software, Inc, La Jolla, USA).

Chain of CcapOBP83a-2 (W8W3U3 entry or part of it): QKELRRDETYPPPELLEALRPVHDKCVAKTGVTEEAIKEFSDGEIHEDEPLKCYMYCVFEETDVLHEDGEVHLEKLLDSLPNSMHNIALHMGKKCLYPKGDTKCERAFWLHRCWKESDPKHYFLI

In general, Kd refers to the equilibrium constant for the complex coming apart. Low readings indicate higher affinity, high ones lower affinity. In the case of `c1ccc(Nc2cccc3ccccc23)cc1` [1-NPN, N-phenyl-1-naphthylamine], the Kd is 10500 ± 1400 nM (first fraction of CcapOBP83a-2); 600 nM and 617 nM (second fraction of CcapOBP83a-2). In addition, the “saturation level of 1-NPN” value by setting is: (first fraction) 10 to 20 µM; (second fraction) 5 to 10 µM.

For the origin of these results see article PMC4003389, “Identification of pheromone components and their binding affinity to the odorant binding protein CcapOBP83a-2 of the Mediterranean fruit fly, Ceratitis capitata” (Insect Biochemistry and Molecular Biology, 2014).
